Measured values as given in patent US20230339882A1, “SHP2 INHIBITOR AND COMPOSITION AND APPLICATION THEREOF” (Betta Pharmaceuticals Co., Ltd., priority 2020, published 2023).
Like-named read-outs stand apart in the source and are kept apart here.

Columns and labels:
SHP2 [1] = target: T1, SHP2 (Homo sapiens (Human), UniProt Q06124); assay: SHP2 allosteric inhibitory enzyme activity assay (DiFMUP fluorescence); assay type: biochemical; conditions: read-out: SHP2 enzymatic activity IC50
Procedure, shortened: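 Human SHP2 (0.2 ng) preincubated 1 h at room temperature with 25 µM activating peptide IRS1_pY1172(dPEG8)pY1222 and compound (10-point series from 10 µM) in HEPES/NaCl/KCl/BRIJ-35/EDTA/DTT buffer. DiFMUP then added for 1 h; fluorescence at ex 340/em 450 nm, normalized to no-enzyme and no-inhibitor controls, IC50 from variable-slope fit.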

hERG potassium channel [2] = target: T2, hERG potassium channel (Homo sapiens (Human), UniProt Q12809); assay: Patch clamp experiments on the hERG ion channel (HEK293 cells overexpressing hERG)
Experimental: (§10) Example C Patch Clamp Experiments to Assess the Effects of Compounds on the hERG Ion Channel
(§11) Dilute the test sample diluent in sequence with extracellular fluid to prepare detection solutions with final concentrations of 0.3 µM, 1 µM, 3 µM, 10 µM and 30 µM. The solubility of the samples to be tested was visually checked.
(§12) The cell line was derived from HEK293 cells and cultured in a 37° C., 5% CO2 incubator. In order to prevent cell senescence caused by contact inhibition, when the cell culture confluence should not exceed 80%, the cells should be passaged every ¾ days, and the inoculation density of each T175 flask should be 2*106 cells. Pre-wash with Phosphate Buffered Saline (PBS), then trypsin/EDTA for 2-3 minutes, stop digestion by adding cell culture medium, and transfer to a new culture bottle.
(§13) HEK293 cells overexpressing the hERG potassium channel were cultured overnight at a cell density below 50%. Experimental cells were transferred to a cell bath embedded in an inverted microscope stage(Diaphot, Nikon) and perfused with extracellular fluid. The extracellular fluid contained 130 mM NaCl, 4 mM KCl, 1.8 mM CaCl2, 1 mM MgCl2, 10 mM glucose and 10 mM HEPES (pH 7.4 with NaOH) at a perfusion rate of 4 ml/min. The inner tube contains 130 mM KCl, 1 mM MgCl2, 5 mM EGTA, 5 mM MgATP and 10 mM HEPES (pH 7.2 with KOH). Membrane currents were recorded using a HEKA EPC-10 patch-clamp amplifier and [sequence] acquisition system (HEKA Instruments Inc., D-67466 Lambrecht, Pfalz, Germany). All experiments were done at room temperature (22-23° C.).
(§14) Electrodes (BF150-86-10) were straightened during the experiments using a P-97 microelectrode puller (Sutter Instrument Company, One Digital Drive, Novato, CA 94949). The inner diameter of the electrode is 1-1.5 mm, and the water entry resistance after filling with internal liquid is 2-4 MΩ.
(§15) When the whole-cell seal is formed, wait for the current to stabilize for 2 minutes (the current decay is less than 5% within 5 minutes, and the tail current value is greater than500 pA). At this time, the peak value of the tail current is the control current value. The extracellular fluid containing the drug to be tested is then perfused. The same procedure was repeated 3-5 times, exposing each cell to 4-6 increasing concentrations of compounds. Blocking and deactivation of hERG during compound exposure and washout were continuously recorded.
(§16) When the whole-cell seal was formed, the cell membrane voltage was clamped at -80 mV, depolarized for 2 seconds every 12 seconds, and the clamping voltage was depolarized from -80 mV to -50 mV under a 5-second repolarization pulse of -50 mV. Measure the peak tail current.
(§17) Peak hERG tail currents were measured under a 5 s repolarization pulse of -50 mV. Each drug concentration was plotted against the current inhibition rate as a function of the logarithm of the compound concentration. The following Hill equation was used to fit a concentration-response curve to fit IC50.
(§18) Y: test value; Bottom: the lowest test value (0); Top: the highest test value (1); Hillcoefficient: the maximum absolute value of the slope of the curve.
(§19) Data are presented as mean ± standard deviation.

leukemia cells MV-4-11 = assay: Cell proliferation assay, CELL TITER-GLO (CTG) luminescence, MV-4-11; assay type: cell-based
Procedure, shortened: (§1)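 NCI-H358 (2000 cells/well, ultra-low-attachment plates) and MV-4-11 cells were dosed 24 h after seeding at 1000 nM down to 0.1524 nM (3-fold steps). Viable-cell ATP was read by CellTiter-Glo luminescence after 96 h for NCI-H358 and 120 h for MV-4-11. IC50 came from a variable-slope fit of inhibition versus the 0 nM control.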

[3] = In vitro metabolic stability in liver microsomes, monkey; assay type: in vitro ADME; conditions: for microsomal CLint at 2 µM: pH 7.3, read-out: CLint (µL/min/mg protein) monkey
[4] = In vitro metabolic stability in liver microsomes, human; assay type: in vitro ADME; conditions: for microsomal CLint at 2 µM: pH 7.3, read-out: CLint (µL/min/mg protein) human
Experimental: (§2) Example D: In Vitro Metabolic Stability of Human and Rat Liver Microsomes Test Buffer Preparation
(§3) Dissolve 1900 mg of MgCl2 in 400 mL of ultrapure water.
(§4) Dissolve 17.42 g K2HPO4 and 13.65 g KH2PO4 into 1000 mL of ultrapure water, respectively. Mix a certain proportion of K2HPO4 and KH2PO4 to adjust the pH to 7.30 ± 0.10.
(§5) Prepare a solution of 10 ng/mL labetalol and 10 ng/mL glyburide in acetonitrile and store at 4° C.
(§6) Prepare 10 mM verapamil (positive control) and test article stock solutions in DMSO. Then, with MeOH/ACN/H2O solution (1:1:2 by volume), diluted to 50 µM and 200 µM working solutions, respectively.
(§7) experiment procedure: • 1) Add 40 µL MgCl2 and 306 µL PBS to 96 wells (set blank control group, positive control group, test compound sample group, and negative control group at the same time) • 2) Add 4 µL of compound working solution to each well (4 µL of PBS buffer for blank group) (Note: the final concentration of DMSO volume in the system is ≤ 0.5%) • 3) Add 10 µL of liver microsomes (concentration: 20 mg/mL) to each well, mix well, and pre-incubate at 37° C. for 10 minutes. • 4) Add 40 µL of 10 mM NADPH working solution to each well to start the reaction (add equal volume of PBS buffer for blank control group and negative control group respectively), the total reaction volume is 400 µL. • 5) Take out 50 µL samples from the above reaction solution at 0, 5, 15, and 45 minutes, and add 400 µL of reaction stop solution to stop the reaction • 6) Shake the sample after the termination of the reaction on a shaker for 5 minutes. • 7) Centrifuge the sample at 3200 rcf for 10 minutes. After the centrifugation is complete, transfer 50 µL of the supernatant to 200 µL of H2O for dilution for LC-MS/MS analysis.
(§8) Calculations of t½ and CLint are performed using the first-order kinetic equations: […]
(§9) where k represents the elimination constant, calculated from a log-linear plot of percentage remaining versus time. t½ represents half-life. Cprotein is the concentration of liver microsomes.

[5] = In vitro metabolic stability in liver microsomes, rat; assay type: in vitro ADME; conditions: for microsomal CLint at 2 µM: pH 7.3, read-out: CLint (µL/min/mg protein) rat
Experimental: as §2, §3, §4, §5, §6, §7, §8, §9

[6] = test system: lung cancer cells NCI-H358; assay: Cell proliferation assay, CELL TITER-GLO (CTG) luminescence, NCI-H358; assay type: cell-based; conditions: cultured for 96 hrs
Procedure, shortened: as §1

[7] = In vitro metabolic stability in liver microsomes, dog; assay type: in vitro ADME; conditions: for microsomal CLint at 2 µM: pH 7.3
[8] = In vitro metabolic stability in liver microsomes, mouse; assay type: in vitro ADME; conditions: for microsomal CLint at 2 µM: pH 7.3, read-out: CLint (µL/min/mg protein) mouse
hERG potassium channel [9] = target: T2, hERG potassium channel
Experimental: as §10, §11, §12, §13, §14, §15, §16, §17, §18, §19

SHP2 [10] = target: T1, SHP2; conditions: according to WO2019183367, cited from earlier work
[11] = read-out: hERG, patch clamp, peak tail current, HEK293
[12] = Homo sapiens, MV4-11, cultured for 120 hrs
[13] = Homo sapiens, NCI-H358, ultra-low adsorption plate

T2 sequence (Q12809 whole entry): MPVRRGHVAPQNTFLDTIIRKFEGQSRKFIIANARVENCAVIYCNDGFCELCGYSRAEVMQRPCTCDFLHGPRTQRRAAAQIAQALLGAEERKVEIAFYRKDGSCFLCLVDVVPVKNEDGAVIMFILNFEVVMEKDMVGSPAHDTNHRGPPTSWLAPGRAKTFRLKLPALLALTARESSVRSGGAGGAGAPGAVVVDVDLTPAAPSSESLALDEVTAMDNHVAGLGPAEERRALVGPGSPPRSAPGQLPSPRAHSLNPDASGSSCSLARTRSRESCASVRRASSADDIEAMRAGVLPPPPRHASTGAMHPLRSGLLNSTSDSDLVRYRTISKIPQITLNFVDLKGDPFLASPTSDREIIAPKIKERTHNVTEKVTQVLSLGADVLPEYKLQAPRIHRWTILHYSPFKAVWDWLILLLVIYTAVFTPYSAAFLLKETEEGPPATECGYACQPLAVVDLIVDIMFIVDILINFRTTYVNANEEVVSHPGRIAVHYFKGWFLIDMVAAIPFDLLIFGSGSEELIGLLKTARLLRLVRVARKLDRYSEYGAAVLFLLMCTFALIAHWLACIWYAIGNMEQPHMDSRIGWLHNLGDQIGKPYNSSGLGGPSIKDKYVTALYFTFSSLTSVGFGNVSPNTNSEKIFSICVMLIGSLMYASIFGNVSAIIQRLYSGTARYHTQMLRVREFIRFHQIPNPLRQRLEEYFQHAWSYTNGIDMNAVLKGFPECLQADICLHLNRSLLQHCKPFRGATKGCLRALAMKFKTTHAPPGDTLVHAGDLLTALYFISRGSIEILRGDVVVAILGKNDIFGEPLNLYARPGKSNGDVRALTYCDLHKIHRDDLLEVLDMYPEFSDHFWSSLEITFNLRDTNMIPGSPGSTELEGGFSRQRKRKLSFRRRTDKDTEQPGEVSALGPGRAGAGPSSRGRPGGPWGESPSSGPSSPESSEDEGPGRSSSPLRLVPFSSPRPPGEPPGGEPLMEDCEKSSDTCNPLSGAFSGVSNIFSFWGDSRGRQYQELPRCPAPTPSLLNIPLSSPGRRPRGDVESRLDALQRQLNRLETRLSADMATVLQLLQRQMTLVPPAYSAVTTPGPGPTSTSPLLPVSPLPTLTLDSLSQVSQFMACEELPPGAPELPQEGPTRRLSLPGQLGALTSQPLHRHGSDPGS

| IC50 (SHP2 [1]) [nM] | IC50 (leukemia cells MV-4-11; [12]) [nM] | microsomal CLint at 2 µM [3] [µL/min/mg] | microsomal CLint at 2 µM [4] [µL/min/mg] | microsomal CLint at 2 µM [5] [µL/min/mg] | IC50 [6, 13] [nM] | microsomal CLint at 2 µM ([7]; dog, microsomes) [µL/min/mg] | microsomal CLint at 2 µM [8] [µL/min/mg] | Compound | IC50 (hERG potassium channel [2]) [nM] | IC50 (leukemia cells MV-4-11; cultured for 120 hrs) [nM] | IC50 ([6]; ultra-low adsorption plate) [nM] | IC50 (hERG potassium channel [2]; [11]) [nM] | other results |
| --- | --- | --- | --- | --- | --- | --- | --- | --- | --- | --- | --- | --- | --- |
| 35 |  |  |  |  |  |  |  | N[C@@H]1c2ccccc2CC12CCN(c1ncc(C#CCOc3ccncc3)nc1CO)CC2 [Compound A18, (S) - (3-(1-amino-1,3-dihydrospiro [indene-2,4′-piperidine]-1′-yl)-6-(3-(pyridin-4-oxy)prop-1-yn-1-yl)pyrazin-2-yl) methanol] | > 20000 |  |  |  |  |
| 2 |  |  |  |  |  |  |  | NC(=O)c1ccc(NCC#Cc2cnc(N3CCC4(CC3)Cc3ccccc3[C@H]4N)c(CO)n2)cc1 [Compound A48, (S)-4-((3-(5-(1-amino-1,3-dihydrospiro[indene-2,4′-piperidin]-1′-yl)-6-(hydroxymethy 1)pyrazin-2-yl)prop-2-yn-1-yl)amino)benzamide] |  | 1.7 | 12 |  | CLint (µL/min/mg protein) monkey [3]: 8.6 µL/min/mg protein; CLint (µL/min/mg protein) human [4]: 7.3 µL/min/mg protein; IC50 (hERG potassium channel [9]): > 20000 nM; CLint (µL/min/mg protein) rat [5]: 15.8 µL/min/mg protein; CLint (µL/min/mg protein) dog ([7]; dog, microsomes): 26.3 µL/min/mg protein; CLint (µL/min/mg protein) mouse [8]: 15.2 µL/min/mg protein |
| 1.1 | 1 | 15.9 | 10.7 | 16.2 | 5.8 | 14.9 | 16.8 | NC(=O)Cc1cccc(OCC#Cc2cnc(N3CCC4(CC3)Cc3ccccc3[C@H]4N)c(CO)n2)c1 [Compound A59, (S)-2-(3-((3-(5-(1-amino-1,3-dihydrospiro[indene-2,4′-piperidin]-1′-yl)-6-(hydroxymethyl)pyrazin-2-yl)prop-2-yn-1-yl)oxy)phenyl)acetamide] | 26000 |  |  |  |  |
| 1.8 | 5.1 | 6.1 | 13 | 15.9 | 9.4 | 14.5 | 14.1 | Cn1nccc1NCC#Cc1cnc(N2CCC3(CC2)Cc2ccccc2[C@H]3N)c(CO)n1 [Compound A61, (S)-(3-(1-amino-1,3-dihydrospiro[indene-2,4′-piperidin]-1′-yl)-6-(3-((1-methyl-1H-pyrazol-5-yl)amino)prop-1-yn-1-yl)pyrazin-2-yl)methanol] |  |  |  |  |  |
| 1.5 | 14 | 19.2 | 2.6 | 8.1 | 56 | 2.9 | 9.7 | NC(=O)c1ccc(OCC#Cc2cnc(N3CCC4(CC3)Cc3ccccc3[C@H]4N)cn2)cc1Cl [Compound A62, (S)-4-((3-(5-(1-amino-1,3-dihydrospiro[inden-2,4′-piperidin]-1′-yl)pyrazin-2-yl)prop-2-yn-1-yl)oxy)-2-chlorobenzamide] |  |  |  |  |  |
| 2.9 | 2.3 |  |  |  | 4.3 |  |  | NC(=O)Cc1ccc(OCC#Cc2cnc(N3CCC4(CC3)Cc3ccccc3[C@H]4N)c(CO)n2)cc1 [Compound A71, (S)-2-(4-((3-(5-(1-amino-1,3-dihydrospiro[indene-2,4′-piperidin]-1′-yl)-6-(hydroxylmethyl)pyrazin-2-yl)prop-2-yn-1-yl)oxy)phenyl)ace tamide] | > 20000 |  |  |  |  |
|  |  |  |  |  |  |  |  | N[C@@H]1c2ccccc2CC12CCN(c1ncc(Sc3ccnc(Cl)c3Cl)nc1CO)CC2 [compound 243] |  |  |  |  | IC50 (SHP2 [10]; read-out: IC50 in the SHP2 allosteric inhibition test (lower bound)): > 50 nM; IC50 (SHP2 [10]; read-out: IC50 in the SHP2 allosteric inhibition test (upper bound)): ≤ 1000 nM |

| Compound | IC50 (SHP2 [1]) [nM] | IC50 (leukemia cells MV-4-11; [12]) [nM] | microsomal CLint at 2 µM [3] [µL/min/mg] | microsomal CLint at 2 µM [4] [µL/min/mg] | microsomal CLint at 2 µM [5] [µL/min/mg] | IC50 [6, 13] [nM] | microsomal CLint at 2 µM ([7]; dog, microsomes) [µL/min/mg] | microsomal CLint at 2 µM [8] [µL/min/mg] | IC50 (hERG potassium channel [2]) [nM] | IC50 (leukemia cells MV-4-11; cultured for 120 hrs) [nM] | IC50 ([6]; ultra-low adsorption plate) [nM] | IC50 (hERG potassium channel [2]; [11]) [nM] | other results |
| --- | --- | --- | --- | --- | --- | --- | --- | --- | --- | --- | --- | --- | --- |
| N[C@@H]1c2ccccc2CC12CCN(c1ncc(C#CCOc3ccc(S(N)(=O)=O)cc3)nc1CO)CC2 [Compound A32, (S)-4-((3-(5-(1-amino-1,3-dihydrospiro[indene-2,4′-piperidin]-1′-yl)-6-(hydroxymethy 1)pyrazin-2-yl)prop-2-yn-1-yl)oxy)benzenesulfonamide] | 1.3 |  |  |  |  |  |  |  |  | 3.4 | 9 | > 20000 | CLint (µL/min/mg protein) monkey [3]: 10.1 µL/min/mg protein; CLint (µL/min/mg protein) human [4]: 2.2 µL/min/mg protein; CLint (µL/min/mg protein) rat [5]: 14.7 µL/min/mg protein; CLint (µL/min/mg protein) dog ([7]; dog liver microsomes): 1.9 µL/min/mg protein; CLint (µL/min/mg protein) mouse [8]: 10.6 µL/min/mg protein |
| CC(=O)Nc1cccc(OCC#Cc2cnc(N3CCC4(CC3)Cc3ccccc3[C@H]4N)c(C(N)=O)n2)c1 [Compound A41] | 14 |  |  |  |  |  |  |  |  |  |  | > 20000 |  |
| CP(C)(=O)c1ccc(OCC#Cc2cnc(N3CCC4(CC3)Cc3ccccc3[C@H]4N)c(CO)n2)cc1 [Compound A57] | 4.3 |  |  |  |  |  |  |  |  | 10 | 22 | > 20000 |  |
